Assay results from patent publication US9029370B2, “Substituted benzamide derivatives” (Hoffmann-La Roche Inc., priority 2011, dated 2015).
Counter-ions that a name gives are not always drawn.

Key:
mouse TAAR1 = mouse TAAR1 (Mus musculus (Mouse), UniProt Q923Y8); experiment: Radioligand binding assay on mouse TAAR1; conditions: mouse TAAR1, HEK-293 membranes; first value of the pair (before the slash); read-out: Ki (μM) mouse/rat
Procedure, shortened: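 Membranes from HEK293 cells stably expressing mouse TAAR1, in HEPES-NaOH pH 7.4 with 0.1 mM EDTA, were incubated 1 h at 4°C with tritiated (S)-4-[(ethyl-phenyl-amino)-methyl]-4,5-dihydro-oxazol-2-ylamine and compound (10 pM–10 μM, duplicates). Nonspecific binding defined with 10 μM unlabeled ligand; bound radioactivity by filtration and scintillation counting.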

rat TAAR1 = rat TAAR1 (Rattus norvegicus (Rat), UniProt Q923Y9); experiment: Radioligand binding assay on rat TAAR1; conditions: rat TAAR1, HEK-293 membranes; second value of the pair (line below); read-out: Ki (μM) mouse/rat
Procedure, shortened: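 Membranes from HEK293 cells stably expressing rat TAAR1 were incubated 1 hr at 4 °C with ^3[H]-(S)-4-[(ethyl-phenyl-amino)-methyl]-4,5-dihydro-oxazol-2-ylamine; nonspecific binding was defined with 10 μM unlabeled ligand. Compounds were tested at 10 pM to 10 μM in duplicate. Bound radioactivity was read by filtration and scintillation counting.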

Chain of rat TAAR1 (Q923Y9 whole entry): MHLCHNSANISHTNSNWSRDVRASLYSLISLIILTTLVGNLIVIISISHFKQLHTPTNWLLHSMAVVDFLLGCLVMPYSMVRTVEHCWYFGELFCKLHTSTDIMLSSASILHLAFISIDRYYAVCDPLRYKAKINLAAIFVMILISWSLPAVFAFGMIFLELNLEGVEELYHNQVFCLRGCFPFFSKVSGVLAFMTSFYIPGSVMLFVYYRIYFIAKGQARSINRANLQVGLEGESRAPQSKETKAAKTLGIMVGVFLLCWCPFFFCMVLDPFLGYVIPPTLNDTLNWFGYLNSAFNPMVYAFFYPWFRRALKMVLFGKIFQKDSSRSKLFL
Chain of mouse TAAR1 (Q923Y8 whole entry): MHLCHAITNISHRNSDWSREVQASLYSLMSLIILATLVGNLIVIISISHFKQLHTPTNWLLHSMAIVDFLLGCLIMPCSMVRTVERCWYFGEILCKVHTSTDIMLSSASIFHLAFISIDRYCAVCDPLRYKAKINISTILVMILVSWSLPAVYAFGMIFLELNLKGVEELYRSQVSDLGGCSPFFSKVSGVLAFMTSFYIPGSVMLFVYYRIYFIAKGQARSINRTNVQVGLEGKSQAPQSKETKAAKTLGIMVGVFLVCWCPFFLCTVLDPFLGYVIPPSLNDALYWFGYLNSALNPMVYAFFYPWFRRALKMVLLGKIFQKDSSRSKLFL

Structure (SMILES)	Ki (mouse TAAR1)	Ki (rat TAAR1)
O=C(Nc1ccc(Cl)nc1)Nc1ccc([C@H]2CNCCO2)cc1F [Example 9, 1-(6-Chloro-pyridin-3-yl)-3-((S)-2-fluoro-4-morpholin-2-yl-phenyl)-urea]	0.0017 µM	0.0105 µM
COc1cc(C(=O)Nc2ccc([C@H]3CNCCO3)cc2F)cc(C(N)=O)n1 [Example 120, (S)—N4-(2-Fluoro-4-(morpholin-2-yl)phenyl)-6-methoxypyridine-2,4-dicarboxamide hydrochloride]	0.0851 µM	0.426 µM
O=C(Nc1ccc([C@H]2CNCCO2)cc1F)c1cnn(-c2cncc(C(F)(F)F)n2)c1 [Example 125, (S)—N-(2-Fluoro-4-(morpholin-2-yl)phenyl)-1-(6-(trifluoromethyl)pyrazin-2-yl)-1H-pyrazole-4-carboxamide hydrochloride]	0.0182 µM	0.0076 µM
NC(=O)c1cc(C(=O)Nc2ccc([C@H]3CNCCO3)c(F)c2)cc(Cl)n1 [Example 116, (S)-6-Chloro-N4-(3-fluoro-4-(morpholin-2-yl)phenyl)pyridine-2,4-dicarboxamide hydrochloride]	0.0512 µM	0.162 µM
O=C(Nc1ccc(C(F)(F)F)nc1)Nc1ccc([C@@H]2CNCCO2)cc1F [Example 10, 1-((R)-2-Fluoro-4-morpholin-2-yl-phenyl)-3-(6-trifluoromethyl-pyridin-3-yl)-urea]	0.0033 µM	0.0033 µM
N#Cc1cc(NC(=O)Nc2ccc([C@@H]3CNCCO3)cc2F)ccc1F [Example 63, (R)-1-(3-Cyano-4-fluorophenyl)-3-(2-fluoro-4-(morpholin-2-yl)phenyl)urea]	0.0014 µM	0.0007 µM
